Molecules are shown by their SMILES. Bounds are passed on as bounds.

This note sets out measurements from ChEMBL document CHEMBL1140494, “Imidazopiperidine amides as dipeptidyl peptidase IV inhibitors for the treatment of diabetes” (Bioorg Med Chem Lett, 2007).

One data set concerns the target Dipeptidyl peptidase 4 (Homo sapiens, UniProt P27487). The data set is described as follows: Inhibition of DPP4.
Another data set concerns the target Dipeptidyl peptidase 8 (Homo sapiens, UniProt Q6V1X1). The data set is described as follows: Inhibition of DPP8.
A further data set addresses Dipeptidyl peptidase 9 (Homo sapiens, UniProt Q86TI2). Put plainly: Inhibition of DPP9.
For another data set, the target named is Dipeptidyl peptidase 2 (Homo sapiens, UniProt Q9UHL4). The data set is described as follows: Inhibition of QPP.
Data set [1] can be described thus: Plasma clearance in rat at 1 mg/kg, iv and 2 mg/kg, po. The class given is ADME, organism-based.
Data set [2] can be described thus: Cmax in rat at 2 mg/kg, po. The data set is classed as ADME, organism-based. On the set-up: dose 2 mg/kg, route oral. The conditions noted are these: in vivo.
Data set [3] is described as follows: Half life in rat at 1 mg/kg, iv and 2 mg/kg, po. The class given is ADME, organism-based. The conditions noted are these: in vivo.
A short description of data set [4]: Oral bioavailability in rat at 2 mg/kg, po. The data set is classed as ADME, organism-based. The conditions noted are these: in vivo.
Data set [5] can be described thus: Volume of distribution at steady state in rat at 1 mg/kg, iv and 2 mg/kg, po. The class given is ADME, organism-based. The conditions noted are these: in vivo, read-out: Vdss.

Dipeptidyl peptidase 4, sequence (P27487 whole entry): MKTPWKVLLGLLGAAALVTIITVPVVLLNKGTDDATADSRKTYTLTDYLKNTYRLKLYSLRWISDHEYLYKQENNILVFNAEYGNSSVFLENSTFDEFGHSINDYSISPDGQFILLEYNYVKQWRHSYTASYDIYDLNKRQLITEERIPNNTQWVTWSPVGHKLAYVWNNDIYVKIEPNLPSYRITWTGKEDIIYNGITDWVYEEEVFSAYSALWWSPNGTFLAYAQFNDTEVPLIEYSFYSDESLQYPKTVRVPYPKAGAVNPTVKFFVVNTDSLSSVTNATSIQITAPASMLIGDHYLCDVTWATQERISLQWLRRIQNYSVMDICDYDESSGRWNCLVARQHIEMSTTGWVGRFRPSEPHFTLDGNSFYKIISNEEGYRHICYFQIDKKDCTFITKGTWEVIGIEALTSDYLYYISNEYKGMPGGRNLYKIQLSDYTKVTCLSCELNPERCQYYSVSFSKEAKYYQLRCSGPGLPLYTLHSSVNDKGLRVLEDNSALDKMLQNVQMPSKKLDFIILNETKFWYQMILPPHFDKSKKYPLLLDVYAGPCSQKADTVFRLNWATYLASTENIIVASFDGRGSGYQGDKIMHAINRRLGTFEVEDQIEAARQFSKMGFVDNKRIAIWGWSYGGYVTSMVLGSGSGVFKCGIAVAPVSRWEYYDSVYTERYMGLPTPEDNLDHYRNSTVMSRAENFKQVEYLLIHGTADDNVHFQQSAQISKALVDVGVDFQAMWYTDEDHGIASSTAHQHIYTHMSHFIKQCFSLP
Dipeptidyl peptidase 9, sequence (Q86TI2 whole entry): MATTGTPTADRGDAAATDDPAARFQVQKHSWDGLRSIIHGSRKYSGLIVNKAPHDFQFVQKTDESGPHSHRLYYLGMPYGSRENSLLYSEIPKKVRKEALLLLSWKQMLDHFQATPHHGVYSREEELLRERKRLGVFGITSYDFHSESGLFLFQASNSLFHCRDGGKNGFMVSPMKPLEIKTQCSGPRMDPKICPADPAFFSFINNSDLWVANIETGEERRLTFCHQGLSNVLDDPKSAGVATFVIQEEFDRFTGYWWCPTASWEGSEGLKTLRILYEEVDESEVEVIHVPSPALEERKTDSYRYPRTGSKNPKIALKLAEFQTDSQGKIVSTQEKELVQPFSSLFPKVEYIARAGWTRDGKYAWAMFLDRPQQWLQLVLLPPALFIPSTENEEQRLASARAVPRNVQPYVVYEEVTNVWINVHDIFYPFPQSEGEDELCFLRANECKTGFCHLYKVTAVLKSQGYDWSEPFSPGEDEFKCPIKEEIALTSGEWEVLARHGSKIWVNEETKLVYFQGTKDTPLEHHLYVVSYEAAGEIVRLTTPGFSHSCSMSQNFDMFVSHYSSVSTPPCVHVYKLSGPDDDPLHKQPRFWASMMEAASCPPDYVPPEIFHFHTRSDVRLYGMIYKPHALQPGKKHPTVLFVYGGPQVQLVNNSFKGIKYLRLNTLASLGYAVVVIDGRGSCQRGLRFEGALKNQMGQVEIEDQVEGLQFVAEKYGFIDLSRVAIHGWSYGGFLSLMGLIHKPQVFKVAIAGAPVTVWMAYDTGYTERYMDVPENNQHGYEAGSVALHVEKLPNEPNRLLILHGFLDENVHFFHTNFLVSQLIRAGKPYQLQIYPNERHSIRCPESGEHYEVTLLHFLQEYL
Dipeptidyl peptidase 8, sequence (Q6V1X1 whole entry): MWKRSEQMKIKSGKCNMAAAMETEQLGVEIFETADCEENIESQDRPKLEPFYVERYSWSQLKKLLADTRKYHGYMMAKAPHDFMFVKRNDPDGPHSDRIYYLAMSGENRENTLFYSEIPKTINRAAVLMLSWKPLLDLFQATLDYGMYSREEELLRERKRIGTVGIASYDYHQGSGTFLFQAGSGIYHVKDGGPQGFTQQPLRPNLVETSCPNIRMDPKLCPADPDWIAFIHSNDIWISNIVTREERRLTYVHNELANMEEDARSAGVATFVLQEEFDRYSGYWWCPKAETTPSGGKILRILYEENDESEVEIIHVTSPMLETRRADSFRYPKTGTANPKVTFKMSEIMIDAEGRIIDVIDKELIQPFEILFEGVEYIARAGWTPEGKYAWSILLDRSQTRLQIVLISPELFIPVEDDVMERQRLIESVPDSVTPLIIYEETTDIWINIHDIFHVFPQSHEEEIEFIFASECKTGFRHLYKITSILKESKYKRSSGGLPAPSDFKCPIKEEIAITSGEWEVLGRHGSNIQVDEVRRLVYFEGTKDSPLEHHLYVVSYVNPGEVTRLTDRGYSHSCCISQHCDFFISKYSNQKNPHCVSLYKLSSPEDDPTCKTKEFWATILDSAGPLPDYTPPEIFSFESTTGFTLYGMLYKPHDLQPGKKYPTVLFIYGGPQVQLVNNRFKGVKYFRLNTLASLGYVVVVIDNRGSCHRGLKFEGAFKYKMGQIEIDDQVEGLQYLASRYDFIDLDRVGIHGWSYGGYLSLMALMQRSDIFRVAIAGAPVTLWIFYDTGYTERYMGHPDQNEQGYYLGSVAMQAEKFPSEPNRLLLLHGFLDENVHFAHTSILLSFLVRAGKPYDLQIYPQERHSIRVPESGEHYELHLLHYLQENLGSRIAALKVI

`N[C@@H](CC(=O)N1CCc2nc(C(F)(F)F)n(Cc3ccc(F)cc3)c2C1)Cc1cc(F)ccc1F`: the IC50 (commonly the concentration at which inhibition is half-maximal) on Dipeptidyl peptidase 4 is 0.25 µM; against Dipeptidyl peptidase 8, above 100 µM; against Dipeptidyl peptidase 9, above 100 µM; against Dipeptidyl peptidase 2 it was 56 µM.
As to `CC1c2nc(C(F)(F)F)n(C)c2CCN1C(=O)C[C@H](N)Cc1cc(F)ccc1F` (stereo in doubt; 63a), the values for the IC50 at Dipeptidyl peptidase 4, at Dipeptidyl peptidase 9 and against Dipeptidyl peptidase 2 were 0.19 µM, above 100 µM and above 100 µM, respectively.
With `Cn1c(C(F)(F)F)nc2c1CCN(C(=O)C[C@H](N)Cc1cc(F)c(F)cc1F)C2Cc1ccc(F)cc1` (stereo in doubt; 72b), the figures for the IC50 against Dipeptidyl peptidase 4, on Dipeptidyl peptidase 9 and on Dipeptidyl peptidase 2 were 0.0058 µM, above 100 µM and 15 µM, respectively.
Consider `CC1c2nc(C(C)(C)C)n(C)c2CCN1C(=O)C[C@H](N)Cc1cc(F)c(F)cc1F` (stereo in doubt; 70b), for which the IC50 against Dipeptidyl peptidase 4 came to 0.37 µM; on Dipeptidyl peptidase 2 it was 19 µM.
Take `CC(C)Cn1c(C(F)(F)F)nc2c1CN(C(=O)C[C@H](N)Cc1cc(F)ccc1F)CC2`: the 50% inhibitory concentration (IC50) on Dipeptidyl peptidase 4 was 0.26 µM; against Dipeptidyl peptidase 8 it was above 100 µM; at Dipeptidyl peptidase 9, above 100 µM; against Dipeptidyl peptidase 2 it was 85 µM.
As to `Cn1c(C(F)(F)F)nc2c1CCN(C(=O)C[C@H](N)Cc1cc(F)c(F)cc1F)C2C1CC1` (stereo in doubt; 68a), the IC50 on Dipeptidyl peptidase 4 is 0.34 µM; at Dipeptidyl peptidase 9, above 100 µM; at Dipeptidyl peptidase 2, above 100 µM.
Consider `Cn1c(C(F)(F)F)nc2c1CCN(C(=O)C[C@H](N)Cc1cc(F)c(F)cc1F)C2Cc1ccccc1` (stereo in doubt; 71a), for which the IC50 at Dipeptidyl peptidase 4 was 0.57 µM; against Dipeptidyl peptidase 9, above 100 µM; against Dipeptidyl peptidase 2, 46 µM.
For `N[C@@H](CC(=O)N1CCc2[nH]c(C(F)(F)F)nc2C1)Cc1cc(F)ccc1F`, the values for the IC50 against Dipeptidyl peptidase 4 and against Dipeptidyl peptidase 2 were 0.14 µM and above 100 µM, respectively.
Take `CC1c2nc(C(F)(F)F)n(C)c2CCN1C(=O)C[C@H](N)Cc1cc(F)c(F)cc1F` (stereo not given in full): in [1], the clearance is 81 mL/min/kg. Also, the peak level in [2] (Cmax) was 98 nM. Besides, the IC50 against Dipeptidyl peptidase 9 was above 100 µM; on Dipeptidyl peptidase 2, 39 µM. For the same compound, the half-life – broadly, the time in which the quantity being followed falls by half – in data set [3] was 1.2 h. Besides, in data set [4], the bioavailability (commonly dose-corrected exposure relative to a reference, in per cent) is 40%. For the same compound, the Vd in [5] was determined as 8 L/kg.
In the case of `Cn1c(C(F)(F)F)nc2c1CCN(C(=O)C[C@H](N)Cc1cc(F)c(F)cc1F)C2Cc1ccc(F)cc1` (stereo in doubt; 72a), the IC50 against Dipeptidyl peptidase 4 is 0.78 µM; on Dipeptidyl peptidase 9, above 100 µM; at Dipeptidyl peptidase 2 it was 39 µM.
For the compound `Cn1cnc2c1CCN(C(=O)C[C@H](N)Cc1cc(F)c(F)cc1F)C2C(F)(F)F` (stereo in doubt; 67a), the IC50 on Dipeptidyl peptidase 4 was 0.38 µM; at Dipeptidyl peptidase 9, above 100 µM; against Dipeptidyl peptidase 2, 76 µM.
`Cn1c(C(F)(F)F)nc2c1CCN(C(=O)C[C@H](N)Cc1cc(F)c(F)cc1F)C2Cc1ccccc1` (stereo in doubt; 71b) gave a clearance in data set [1] of 64 mL/min/kg. Further, in [2], the peak level (Cmax) was 72 nM. The IC50 at Dipeptidyl peptidase 4 was 0.0084 µM; at Dipeptidyl peptidase 9 it was above 100 µM; against Dipeptidyl peptidase 2, 20 µM. In addition, the half-life in data set [3] is 1.5 h. Moreover, the bioavailability in data set [4] worked out at 16%. Also, in [5], the Vd turned out to be 6.5 L/kg.
As to `CCn1c(C(F)(F)F)nc2c1CCN(C(=O)C[C@H](N)Cc1cc(F)ccc1F)C2`, the half-maximal inhibitory concentration (IC50) at Dipeptidyl peptidase 4 was 0.18 µM; on Dipeptidyl peptidase 9, above 100 µM; against Dipeptidyl peptidase 2 it was above 100 µM.
Turning to `Cn1c(C(F)(F)F)nc2c1CCN(C(=O)C[C@H](N)Cc1cc(F)c(F)cc1F)C2C1CC1` (stereo in doubt; 68b), the IC50 is 0.11 µM against Dipeptidyl peptidase 4, above 100 µM against Dipeptidyl peptidase 9 and 37 µM on Dipeptidyl peptidase 2.
As for `Cn1cnc2c1CCN(C(=O)C[C@H](N)Cc1cc(F)c(F)cc1F)C2C(F)(F)F` (stereo in doubt; 67b), the clearance in [1] amounted to 93 mL/min/kg. The Cmax (commonly the maximum level reached in the sampled fluid or tissue) in data set [2] came out at 50 nM. The IC50 is 0.05 µM on Dipeptidyl peptidase 4, above 100 µM at Dipeptidyl peptidase 9 and 38 µM against Dipeptidyl peptidase 2. For the same compound, the half-life in data set [3] is 1.4 h. The same compound had a bioavailability in data set [4] of 16%. Further, the Vd in data set [5] came out at 8.3 L/kg.
With `CC1c2nc(C(C)(C)C)n(C)c2CCN1C(=O)C[C@H](N)Cc1cc(F)c(F)cc1F` (stereo in doubt; 70a), the IC50 against Dipeptidyl peptidase 4 amounted to 0.63 µM; against Dipeptidyl peptidase 2, 37 µM.
In the case of `CC1c2nc(C(F)(F)F)n(C)c2CCN1C(=O)C[C@H](N)Cc1cc(F)ccc1F` (stereo in doubt; 63b), the IC50 at Dipeptidyl peptidase 4 is 0.065 µM; at Dipeptidyl peptidase 9 it was above 100 µM; at Dipeptidyl peptidase 2, above 100 µM.
Consider `CC(C)Cn1c(C(F)(F)F)nc2c1CCN(C(=O)C[C@H](N)Cc1cc(F)ccc1F)C2`, for which the IC50 was 0.22 µM against Dipeptidyl peptidase 4, above 100 µM against Dipeptidyl peptidase 9 and 49 µM against Dipeptidyl peptidase 2.
Compound `CC1c2nc(C3CC3)n(C)c2CCN1C(=O)C[C@H](N)Cc1cc(F)c(F)cc1F` (stereo not given in full) [listing 1 of 2 here] had a half-inhibitory concentration (IC50) on Dipeptidyl peptidase 2 of 90 µM.
In turn, `CC1c2nc(C3CC3)n(C)c2CCN1C(=O)C[C@H](N)Cc1cc(F)c(F)cc1F` (stereo not given in full) [listing 2 of 2 here] came in with an IC50 against Dipeptidyl peptidase 2 of 30 µM.
Take `Cn1c(C(F)(F)F)nc2c1CCN(C(=O)C[C@H](N)Cc1cc(F)ccc1F)C2`: the IC50 on Dipeptidyl peptidase 4 is 0.15 µM; against Dipeptidyl peptidase 9, above 100 µM; on Dipeptidyl peptidase 2 it was 92 µM.
For the compound `N[C@@H](CC(=O)N1CCc2c(nc(C(F)(F)F)n2Cc2ccc(F)cc2)C1)Cc1cc(F)ccc1F`, the IC50 at Dipeptidyl peptidase 4 is 0.25 µM; on Dipeptidyl peptidase 9 it was above 100 µM; at Dipeptidyl peptidase 2, 64 µM.
